Experimental data taken from PubChem BioAssay AID330 (DTP/NCI, 2004).
“And” between values parts separate entries of the source, which are not always exact repeats. Identical values can stand only once. Inconclusive results and toxic doses are left out. The calls were made as follows: active = survival T/C of 150% or more; inactive = T/C below 125% in these data.

Test system: P388 leukemia ip, CD2F1 mice, survival T/C
Test: NCI In Vivo Anticancer Drug Screen. Data for tumor model P388 Leukemia (intraperitoneal) in CD2F1 (CDF1) mice
Conditions: endpoint: median survival time, higher = longer survival
In short: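 Mice carrying the transplanted tumor received test compound or vehicle. Survival was recorded in each group, and the value is the treated-group measurement divided by that of the vehicle-treated control group.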

[1] = dose: 50.0 mg/kg/injection, schedule: Q01DX005 (ip), vehicle: saline with Tween-80
[2] = dose: 100.0 mg/kg/injection, schedule: Q01DX005 (ip), vehicle: saline with Tween-80
[3] = dose: 200.0 mg/kg/injection, schedule: Q01DX005 (ip), vehicle: saline with Tween-80
[4] = dose: 100.0 mg/kg/injection, schedule: Q01DX001 (ip), vehicle: saline with Tween-80
[5] = dose: 200.0 mg/kg/injection, schedule: Q01DX001 (ip), vehicle: saline with Tween-80
[6] = dose: 400.0 mg/kg/injection, schedule: Q01DX001 (ip), vehicle: saline with Tween-80
[7] = dose: 60.0 mg/kg/injection, schedule: Q01DX005 (ip), vehicle: saline with Tween-80
[8] = dose: 120.0 mg/kg/injection, schedule: Q01DX005 (ip), vehicle: saline with Tween-80
[9] = dose: 240.0 mg/kg/injection, schedule: Q01DX005 (ip), vehicle: saline with Tween-80
[10] = dose: 60.0 mg/kg/injection, schedule: Q01DX005 (ip), vehicle: saline
[11] = dose: 120.0 mg/kg/injection, schedule: Q01DX005 (ip), vehicle: saline
[12] = dose: 50.0 mg/kg/injection, schedule: Q01DX009 (ip), vehicle: saline with Tween-80
[13] = dose: 100.0 mg/kg/injection, schedule: Q01DX009 (ip), vehicle: saline with Tween-80
[14] = dose: 200.0 mg/kg/injection, schedule: Q01DX009 (ip), vehicle: saline with Tween-80
[15] = dose: 25.0 mg/kg/injection, schedule: Q01DX005 (ip), vehicle: saline with Tween-80
[16] = dose: 25.0 mg/kg/injection, schedule: Q01DX009 (ip), vehicle: saline with Tween-80
[17] = dose: 25.0 mg/kg/injection, schedule: Q01DX005 (ip), vehicle: Klucel (hydroxypropylcellulose) (HPC)
[18] = dose: 50.0 mg/kg/injection, schedule: Q01DX005 (ip), vehicle: Klucel (hydroxypropylcellulose) (HPC)
[19] = dose: 100.0 mg/kg/injection, schedule: Q01DX005 (ip), vehicle: Klucel (hydroxypropylcellulose) (HPC)
[20] = dose: 12.5 mg/kg/injection, schedule: Q01DX005 (ip), vehicle: saline with Tween-80

Measured: T/C

O=C(c1cc(-c2ccccc2)nc2ccccc12)n1c(=O)oc(=O)c2cc([N+](=O)[O-])ccc21
inactive: dose: 50.0 mg/kg/injection, schedule: Q01DX005 (ip), vehicle: saline 97 % of control | dose: 100.0 mg/kg/injection, schedule: Q01DX005 (ip), vehicle: saline 101 % of control | dose: 200.0 mg/kg/injection, schedule: Q01DX005 (ip), vehicle: saline 99 % of control

COc1ccc(S(=O)(=O)F)cc1NC(C)=O
inactive: dose: 60.0 mg/kg/injection, schedule: Q01DX005 (ip), vehicle: Klucel (hydroxypropylcellulose) (HPC) 105 % of control | dose: 120.0 mg/kg/injection, schedule: Q01DX005 (ip), vehicle: Klucel (hydroxypropylcellulose) (HPC) 101 % of control

O=C1Oc2ccccc2CC1C(=O)c1ccc(Cl)cc1 (stereo not drawn)
inactive: [1] 106 % of control | [2] 103 % of control | [3] 100 % of control

O=C1N[C@H]2CS(=O)(=O)C[C@H]2N1
inactive: [1] 100 % of control | [2] 104 % of control | [3] 93 % of control

CS(=O)(=O)NC(=O)NC(=S)c1ccco1
inactive: [4] 105 % of control | [5] 102 % of control | [6] 97 % of control

O=C(Nc1c(Cl)cccc1Cl)Nc1c(Cl)cccc1Cl
inactive: [7] 92 % of control | [8] 92 % of control | [9] 94 % of control

O=C(CCc1c[nH]c2ccccc12)c1ccccc1O
inactive: [7] 98 % of control | [8] 100 % of control | [9] 92 % of control

CN(C)c1ccc(C(Cl)[O][Sn]([CH3])([CH3])[Cl])cc1 (stereo not drawn)
inactive: dose: 12.5 mg/kg/injection, schedule: Q04DX002 (ip), vehicle: saline with Tween-80 106 % of control and 116 % of control | dose: 12.5 mg/kg/injection, schedule: Q04DX002 (ip), vehicle: saline 110 % of control | dose: 25.0 mg/kg/injection, schedule: Q04DX002 (ip), vehicle: saline with Tween-80 101 % of control and 106 % of control | dose: 25.0 mg/kg/injection, schedule: Q04DX002 (ip), vehicle: saline 115 % of control | dose: 50.0 mg/kg/injection, schedule: Q04DX002 (ip), vehicle: saline with Tween-80 116 % of control and 120 % of control | dose: 50.0 mg/kg/injection, schedule: Q04DX002 (ip), vehicle: saline 100 % of control | dose: 100.0 mg/kg/injection, schedule: Q04DX002 (ip), vehicle: saline 98 % of control

CC1=CC(c2ccccc2)=CS(=O)(N(C)C)=C1 (stereo not drawn)
inactive: [10] 100 % of control | [11] 104 % of control | dose: 240.0 mg/kg/injection, schedule: Q01DX005 (ip), vehicle: saline 104 % of control

CCOC(=O)C(=CNC(C)(C)C)C(=O)OCC
inactive: [12] 106 % of control | [13] 115 % of control | [14] 100 % of control

Fc1ccc2nc3ccccc3c(SCCNCCSc3c4ccccc4nc4ccc(F)cc34)c2c1
inactive: [7] 97 % of control | [8] 89 % of control

CC1C(=O)C(C)C(c2ccccc2)N(C)C1c1ccccc1 (stereo not drawn)
inactive: [1] 96 % of control | [7] 101 % of control | [2] 106 % of control | [8] 96 % of control | [3] 98 % of control | [9] 106 % of control

NC(N)=NC(N)=Nc1ccc2c(Cl)c(Cl)ccc2c1
inactive: dose: 6.0 mg/kg/injection, schedule: Q01DX005 (ip), vehicle: saline with Tween-80 96 % of control | dose: 12.0 mg/kg/injection, schedule: Q01DX005 (ip), vehicle: saline with Tween-80 111 % of control | dose: 22.0 mg/kg/injection, schedule: Q04DX003 (ip), vehicle: saline with Tween-80 104 % of control | [15] 104 % of control | dose: 25.0 mg/kg/injection, schedule: Q04DX003 (ip), vehicle: saline with Tween-80 120 % of control | dose: 33.0 mg/kg/injection, schedule: Q04DX003 (ip), vehicle: saline with Tween-80 100 % of control | [1] 93 % of control | dose: 50.0 mg/kg/injection, schedule: Q04DX003 (ip), vehicle: saline with Tween-80 118 % of control

CCN(CC)Cc1cc(N=Nc2cc(OC)c(N=Nc3ccc([N+](=O)[O-])cc3)cc2OC)c2ccccc2c1O
inactive: dose: 12.5 mg/kg/injection, schedule: Q01DX009 (ip), vehicle: Klucel (hydroxypropylcellulose) (HPC) 110 % of control | dose: 25.0 mg/kg/injection, schedule: Q01DX009 (ip), vehicle: Klucel (hydroxypropylcellulose) (HPC) 100 % of control | dose: 50.0 mg/kg/injection, schedule: Q01DX009 (ip), vehicle: Klucel (hydroxypropylcellulose) (HPC) 107 % of control and 90 % of control | dose: 100.0 mg/kg/injection, schedule: Q01DX009 (ip), vehicle: Klucel (hydroxypropylcellulose) (HPC) 100 % of control (2×) and 94 % of control | dose: 400.0 mg/kg/injection, schedule: Q01DX009 (ip), vehicle: Klucel (hydroxypropylcellulose) (HPC) 101 % of control and 91 % of control

O=C(N/N=C/c1ccco1)c1cccnc1
inactive: [7] 92 % of control | [8] 92 % of control | [9] 101 % of control

BrCC[Se]c1ccccc1
inactive: [16] 103 % of control | [12] 112 % of control and 117 % of control | [13] 120 % of control and 124 % of control

COc1ccc2cc1Oc1ccc(cc1)CC1c3cc(OC)c(cc3CCN1C)Oc1c(OC)c(OC)cc3c1C(C2)N(C)CC3 (stereo not drawn)
inactive: dose: 12.5 mg/kg/injection, schedule: Q01DX005 (ip), vehicle: Klucel (hydroxypropylcellulose) (HPC) 92 % of control | [17] 95 % of control | [18] 94 % of control | [4] 98 % of control | [19] 86 % of control | [5] 86 % of control | [6] 86 % of control

Cc1cccc(CSCc2c(CSCc3cccc(C)c3)c(CSCc3cccc(C)c3)c(CSCc3cccc(C)c3)c(CSCc3cccc(C)c3)c2CSCc2cccc(C)c2)c1
inactive: [4] 114 % of control | [5] 105 % of control | [6] 101 % of control

O=C(O)CCCC12CCC(CCCC(=O)O)(CC1)CC2
inactive: dose: 100.0 mg/kg/injection, schedule: Q04DX003 (ip), vehicle: Klucel (hydroxypropylcellulose) (HPC) 99 % of control | dose: 200.0 mg/kg/injection, schedule: Q04DX003 (ip), vehicle: Klucel (hydroxypropylcellulose) (HPC) 97 % of control | dose: 400.0 mg/kg/injection, schedule: Q04DX003 (ip), vehicle: Klucel (hydroxypropylcellulose) (HPC) 104 % of control

O=c1[nH]cc(NS(=O)(=O)c2ccccc2)c(=O)[nH]1
inactive: [7] 105 % of control | [8] 101 % of control

COc1ccc(C(CC(C)=O)c2cc3c(cc2OC(C)=O)OCO3)cc1 (stereo not drawn)
inactive: [7] 97 % of control | [8] 103 % of control | [9] 99 % of control

COc1cc2c(c3c1c(=O)c1ccccc1n3C)C=CC(C)(C)O2
inactive: dose: 7.5 mg/kg/injection, schedule: Q01DX009 (ip), vehicle: saline with Tween-80 99 % of control | [20] 92 % of control | dose: 15.0 mg/kg/injection, schedule: Q01DX009 (ip), vehicle: saline with Tween-80 98 % of control | [17] 97 % of control | [15] 92 % of control | dose: 30.0 mg/kg/injection, schedule: Q01DX009 (ip), vehicle: saline with Tween-80 103 % of control | [18] 112 % of control | [1] 112 % of control | [19] 118 % of control | [2] 113 % of control

O=C1C2C3CCC(O3)C2C(=O)N1CO (stereo not drawn)
inactive: [10] 112 % of control | [11] 124 % of control

O=C(O)c1cc2ccc(Br)cc2[se]1
inactive: dose: 50.0 mg/kg/injection, schedule: Q01DX009 (ip), vehicle: saline 110 % of control | dose: 100.0 mg/kg/injection, schedule: Q01DX009 (ip), vehicle: saline 99 % of control | dose: 200.0 mg/kg/injection, schedule: Q01DX009 (ip), vehicle: saline 94 % of control

COc1cc(C(=O)CC(=O)CCC(=O)Nc2ccc(C)c(C)c2)ccc1O
inactive: [7] 102 % of control | [8] 104 % of control | [9] 102 % of control

CCOc1ccc(N2C(N)=NC(N)=NC2(C)C)cc1
inactive: [20] 99 % of control | [15] 101 % of control | [1] 101 % of control and 108 % of control

O=C(NS(=O)(=O)c1ccc(Cl)cc1)c1ccccc1
inactive: dose: 12.5 mg/kg/injection, schedule: Q01DX009 (ip), vehicle: saline with Tween-80 102 % of control and 91 % of control | [16] 106 % of control | [12] 100 % of control and 94 % of control

C=CC(C)(C)/C=C/C=O
inactive: [7] 97 % of control | [8] 92 % of control | [9] 104 % of control

O=C(/C=C/c1ccccc1Cl)c1ccccc1
inactive: [12] 112 % of control | [13] 110 % of control | [14] 114 % of control
